Counter-ions that a name gives are not always drawn.
SMILES | melting point
CCN1CCN(c2nc(-c3cccc(OCCO)c3)cc3ccoc23)CC1 (as salt: hydrochloride) [Example 298, 7-(1-ethylpiperazin-4-yl)-5-[3-(2-hydroxyethoxy)phenyl]furo[2,3-c]pyridine dihydrochloride] | 117 to 121 °C
CCN1CCN(c2nc(-c3ccc(CCCO)cc3)cc3ccoc23)CC1 (as salt: hydrochloride) [Example 299, 7-(1-ethylpiperazin-4-yl)-5-[4-(3-hydroxypropyl)phenyl]furo[2,3-c]pyridine dihydrochloride] | 126 to 130 °C
CCN1CCN(c2nc(-c3ccc(CCC(C)O)cc3)cc3ccoc23)CC1 (stereo not drawn) (as salt: hydrochloride) [Example 300, 7-(1-ethylpiperazin-4-yl)-5-[4-(3-hydroxybutyl)phenyl]furo[2,3-c]pyridine dihydrochloride] | 175 to 177 °C
CCN1CCN(c2nc(-c3ccc(OCC(C)(C)O)cc3)cc3ccccc23)CC1 (as salt: hydrochloride) [Example 309, 1-(1-ethylpiperazin-4-yl)-3-[4-(2-hydroxy-2-methylpropoxy)phenyl]isoquinoline dihydrochloride] | 129 to 134 °C
COc1ccc(-c2cc3ccccc3c(N3CCN(CC(N)=O)CC3)n2)cc1 (as salt: hydrochloride) [Example 314, 1-[1-(carbamoylmethyl)piperazin-4-yl]-3-(4-methoxyphenyl)isoquinoline dihydrochloride] | 153 to 155 °C
COc1ccc(-c2cc3ccccc3c(N(C)CCN(C)C)n2)cc1 (as salt: hydrochloride) [Example 319, 1-{N-[2-(2-dimethylamino)ethyl]-N-methylamino}-3-(4-methoxyphenyl)isoquinoline dihydrochloride] | 160 to 162 °C
COc1ccc(-c2cc3ccccc3c(NCCN3CCOCC3)n2)cc1 (as salt: hydrochloride) [Example 323, 1-[2-(4-morpholinyl)ethyl]amino-3-(4-methoxyphenyl)isoquinoline dihydrochloride] | 135 to 136 °C
COc1ccc(-c2cc3ccccc3c(N3CCC(N4CCCCC4)CC3)n2)cc1 (as salt: hydrochloride) [Example 325, 1-[4-(piperidin-1-yl)piperidine-1-yl]-3-(4-methoxyphenyl)isoquinoline dihydrohcloride] | 223 to 238 °C
CCN1CCN(c2nc(-c3ccc4c(c3)OCCO4)cc3ccccc23)CC1 (as salt: hydrochloride) [Example 332, 1-(4-ethylpiperazin-1-yl)-3-(3,4-ethylenedioxyphenyl)isoquinoline dihydrochloride] | 141 to 143 °C
CCN1CCN(c2nc(-c3ccc(CCCOC)cc3)cc3ccccc23)CC1 (as salt: hydrochloride) [Example 333, 1-(4-ethylpiperazin-1-yl)-3-[4-(3-(methoxypropyl)phenyl]isoquinolinedihydrochloride] | 191 to 192 °C (dec.)
CCN1CCN(c2nc(-c3cc(OC)ccn3)cc3ccccc23)CC1 (as salt: hydrochloride) [Example 335, 1-(4-ethylpiperazin-1-yl)-3-(4-methoxypyridin-2-yl)isoquinoline dihydrochloride] | 172 to 173 °C (dec.)
CCN1CCN(c2nc(-c3ccc(OCC(O)CO)cc3)cc3ccccc23)CC1 (stereo not drawn) (as salt: hydrochloride) [Example 337, 1-(4-ethylpiperazin-1-yl)-3-[4-(2,3-dihydroxypropoxy)phenyl]isoquinoline dihydrochloride] | 133 to 135 °C (dec.)
CCN1CCN(c2nc(-c3ccc(OC(F)(F)F)cc3)cc3ccccc23)CC1 (as salt: hydrochloride) [Example 339, 1-(4-ethylpiperazin-1-yl)-3-(4-trifluoromethoxyphenyl)isoquinoline dihydrochloride] | 113 to 115 °C
CCN1CCN(c2nc(-c3ccc(OCCO)c(OC)c3)cc3ccccc23)CC1 (as salt: hydrochloride) [Example 340, 1-(4-ethylpiperazin-1-yl)-3-[4-(2-hydroxyethoxy)-3-methoxyphenyl]isoquinoline dihydrochloride] | 128 to 129 °C
CCN1CCN(c2nc(-c3ccc(SC)cc3)cc3ccccc23)CC1 (as salt: hydrochloride) [Example 341, 1-(4-ethylpiperazin-1-yl)-3-(4-methylthiophenyl)isoquinoline dihdyrochloride] | 215 to 218 °C (dec.)
CCN1CCN(c2nc(-c3ccc(S(C)(=O)=O)cc3)cc3ccccc23)CC1 (as salt: hydrochloride) [Example 342, 1-(4-ethylpiperazin-1-yl)-3-(4-methylsulfonylphenyl)isoquinoline dihydrochloride] | 216.5 to 218 °C (dec.)
CCN1CCN(c2nc(-c3ccc(OCC(O)COC)cc3)cc3ccccc23)CC1 (stereo not drawn) (as salt: hydrochloride) [Example 343, 1-(4-ethylpiperazin-1-yl)-3-[4-(2-hydroxy-3-methoxypropoxy)phenyl]isoquinoline dihydrochloride] | 216.5 to 218 °C (dec.)

SMILES | melting point
CCN1CCN(c2nc(-c3ccc(C(=O)NCCO)cc3)cc3ccccc23)CC1 (as salt: hydrochloride) [Example 346, 1-(4-ethylpiperazin-1-yl)-3-{4-(N-(2-hydroxyethyl)carbamoyl]phenyl}isoquinoline dihydrochloride] | 154 to 155 °C
CCN1CCN(c2nc(-c3ccc(S(=O)(=O)NCCO)cc3)cc3ccccc23)CC1 (as salt: hydrochloride) [Example 347, 1-(4-ethylpiperazin-1-yl)-3-{4-[N-(2-hydroxyethyl)sulfamoyl]phenyl}isoquinoline dihydrochloride] | 136 to 138.5 °C
CCN1CCN(c2nc(-c3ccc(C(C)O)cc3)cc3ccccc23)CC1 (stereo not drawn) (as salt: hydrochloride) [Example 348, 1-(4-ethylpiperazin-1-yl)-3-[4-(1-hydroxyethyl)phenyl]isoquinoline dihydrochloride] | 135.5 to 136 °C
CCCS(=O)(=O)c1ccc(-c2cc3ccccc3c(N3CCN(CC)CC3)n2)cc1 (as salt: hydrochloride) [Example 349, 1-(4-ethylpiperazin-1-yl)-3-[4-propylsulfonyl)phenyl]isoquinoline dihydrochloride] | 240.5 to 242 °C (dec.)
CCN1CCN(c2nc(-c3ccc(S(=O)(=O)CCCOC)cc3)cc3ccccc23)CC1 (as salt: hydrochloride) [Example 350, 1-(4-ethylpiperazin-1-yl)-3-{4-[(3-methoxypropyl)sulfonyl]phenyl}isoquinoline] | 177.5 to 180 °C
CCN1CCN(c2nc(-c3ccc(CCO)cc3)cc3ccccc23)CC1 (as salt: hydrochloride) [Example 351, 1-(4-ethylpiperazin-1-yl)-3-[4-(2-hydroxyethyl)phenyl]isoquinoline dihydrochloride] | 134 to 136 °C
CCN1CCN(c2nc(-c3ccc(S(=O)(=O)CCCO)cc3)cc3ccccc23)CC1 (as salt: hydrochloride) [Example 352, 1-(4-ethylpiperazin-1-yl)-3-[4-(3-hydroxypropyl)sulfonylphenyl]isoquinoline dihydrochloride] | 213 to 215 °C (dec.)
CCCNS(=O)(=O)c1ccc(-c2cc3ccccc3c(N3CCN(CC)CC3)n2)cc1 (as salt: hydrochloride) [Example 353, 1-(4-ethylpiperazin-1-yl)-3-[4-(N-propylsulfamoyl)phenyl]isoquinoline dihydrochloride] | 226.5 to 227.5 °C (dec.)
CCN1CCN(c2nc(-c3ccc(S(=O)(=O)NCCOC)cc3)cc3ccccc23)CC1 (as salt: hydrochloride) [Example 354, 1-(4-ethylpiperazin-1-yl)-3-{4-[N-(2-methoxyethyl)sulfamoyl]phenyl}isoquinoline dihydrochloride] | 222 to 224 °C (dec.)
CCN1CCN(c2nc(-c3ccc(S(=O)(=O)CCCF)cc3)cc3ccccc23)CC1 (as salt: hydrochloride) [Example 355, 1-(4-ethylpiperazin-1-yl)-3-[4-(3-fluoropropyl)sulfonylphenyl]isoquinoline dihydrochloride] | 224 to 225 °C (dec.)
CCN1CCN(c2nc(-c3ccc(S(=O)(=O)N4CCCC4)cc3)cc3ccccc23)CC1 (as salt: hydrochloride) [Example 356, 1-(4-ethylpiperazin-1-yl)-3-[4-(pyrrolidin-1-yl)sulfonylphenyl]isoquinoline dihydrochloride] | 238.5 to 240 °C (dec.)
CCNS(=O)(=O)c1ccc(-c2cc3ccccc3c(N3CCN(CC)CC3)n2)cc1 (as salt: hydrochloride) [Example 357, 1-(4-ethylpiperazin-1-yl)-3-[4-(N-ethylsulfamoyl)phenyl]isoquinoline dihydrochloride] | 147 to 149 °C
CCCN(C)S(=O)(=O)c1ccc(-c2cc3ccccc3c(N3CCN(CC)CC3)n2)cc1 (as salt: hydrochloride) [Example 358, 1-(4-ethylpiperazin-1-yl)-3-[4-(N-methyl-N-propylsulfamoyl)phenyl]isoquinoline dihydrochloride] | 199.5 to 200.5 °C (dec.)
CCN1CCN(c2nc(-c3ccc(S(=O)(=O)N(CC)CC)cc3)cc3ccccc23)CC1 (as salt: hydrochloride) [Example 359, 1-(4-ethylpiperazin-1-yl)-3-[4-(N,N-diethylsulfamoyl)phenyl]isoquinoline dihydrochloride] | 210 to 212 °C (dec.)
CCC(C)NS(=O)(=O)c1ccc(-c2cc3ccccc3c(N3CCN(CC)CC3)n2)cc1 (stereo not drawn) (as salt: hydrochloride) [Example 360, 1-(4-ethylpiperazin-1-yl)-3-{4-[N-(1-methylpropyl)sulfamoyl]phenyl}isoquinoline dihydrochloride] | 155 to 156 °C
CCN1CCN(c2nc(-c3ccc(S(=O)(=O)NC)cc3)cc3ccccc23)CC1 (as salt: hydrochloride) [Example 361, 1-(4-ethylpiperazin-1-yl)-3-[4-(N-methylsulfamoyl)phenyl]isoquinoline dihydrochloride] | 170 to 172 °C

From US6875761B2 (Eisai Co., Ltd., priority 1997, dated 2005)
